# Results as given in US20250032443A1, “TREATMENT OF MYOTONIC DISORDERS” (University of Rochester, priority 2021, published 2025).
# What was measured:
# [1] = tested on: EDL muscle of Cav1.1^Δe29/ClC-1^−/− mice; assay: In vitro muscle contraction of EDL isolated from long-term orally treated mice (no drug in bath); type: in vivo, mouse; settings: 20-weeks-of-age, amlodipine treatment
# [2] = tested on: Cav1.1^Δe29+9-AC EDL muscle; assay: Transient weakness, ex vivo EDL made myotonic with 9-AC; parameters: initial force generation drop: dose or concentration left out as unconfirmed; settings: for transient weakness: 20-wk mice
# myotonic Cav1.1^Δe29 EDL = assay: Myotonia, ex vivo EDL incubated with 9-AC; parameters: species or system mouse
# [3] = tested on: Cav1.1^Δe29/ClC-1^−/− mice; assay: Body weight measurements in Cav1.1^Δe29/ClC-1^−/− mice; type: in vivo, mouse
# Description: Mice were provided food cups immediately after weaning, and food was changed daily. No other food source was given, but water was provided and changed weekly along with cages.
# Body weight of the mice was measured every other day following weaning to the end of terminal experimentation. For statistical analysis, two-way ANOVA was performed on the average of each week's measurements. Percent body weight change at 10 weeks was determined with the first weight measurement taken post-weaning, and the body weight reached at 10 weeks.
# [4] = tested on: diaphragm strip of Cav1.1^Δe29/ClC-1^−/− mice; assay: In vitro muscle contraction of diaphragm strips isolated from long-term orally treated mice (no drug in bath); type: in vivo, mouse
# [5] = tested on: WT and Cav1.1^Δe29 EDLs (no 9AC); assay: Myotonia protocol, ex vivo EDL without 9-AC; parameters: species or system mouse; settings: 10 mM amlodipine in the bath
# myotonic WT EDL = assay: Myotonia, ex vivo EDL incubated with 9-AC; parameters: species or system mouse
# [6] = tested on: Cav1.1^Δe29/ClC-1^−/− mice; assay: Time of righting reflex in Cav1.1^Δe29/ClC-1^−/− mice; type: in vivo, mouse
# Description: Mice were held in a supine position on a level surface and then released. Two persons began timing immediately after release, and timing was stopped once all four paws were down on the surface. This was repeated for a total of 10 timed righting responses with a minimum of five minutes in between each recording to avoid myotonic warm-up. Recordings less than a second were recorded as “1,” and righting was considered a failure if righting took more than 60 seconds. If failure was reached, no further recordings were measured for that mouse for that week. The two longest and two shortest recording for each mouse was removed, and the average of the middle 6 recordings were used for analysis. Two-way ANOVA on the week-to-week results and one-way ANOAV with multiple comparisons for the timepoint data (10-week and 20-week) were performed.
# [7] = tested on: Cav1.1^Δe29/ClC-1^−/− mice; assay: Whole body plethysmography in Cav1.1^Δe29/ClC-1^−/− mice; type: in vivo, mouse
# Description: Whole body plethysmography (Buxco® Small Animal Whole Body Plethysmography, Data Science Internation) was used to measure respiratory function at 10 weeks (all groups) and 20 weeks (excluding untreated Cav1.1^Δe29/ClC-1^−/−). Mice were acclimated to the system for two days, with data being collected on day three. […] Average data from the 10-minute acquisition period for frequency (Breath/min) and tidal volume (mL) were analyzed for statistics by one-way ANOVA with multiple comparisons.
# WT+9-AC EDL muscle = assay: Transient weakness, ex vivo EDL made myotonic with 9-AC; settings: in bath, 20-wk mice
# [8] = tested on: non-myotonic and myotonic WT and Cav1.1^Δe29 mouse muscle; assay: Peak contraction force of non-myotonic and myotonic ex vivo EDL, drug in bath; settings: 5 mM and 20 mM verapamil in bath, with or without 100 mM 9-AC; 20-wk mice
# [9] = 5 mg/kg/day amlodipine vs untreated
# [10] = 20-weeks of age, amlodipine treated vs WT
structure (smiles),measurement,setting,value
"CCOC(=O)C1=C(COCCN)NC(C)=C(C(=O)OC)C1c1ccccc1Cl (racemic) [amlodipine, (RS)-3-ethyl 5-methyl 2-[(2-aminoethoxy)methyl]-4-(2-chlorophenyl)-6-methyl-1,4-dihydropyridine-3,5-dicarboxylate]",muscle function and muscle force generation in EDL,[1],not a significant impact
same,initial force generation drop,[2]; 10 mm amlodipine in the bath,improved
same,transient weakness,[2]; 10 mm amlodipine in the bath,improvement to transient weakness
same,myotonia,myotonic Cav1.1^Δe29 EDL; 10 mM amlodipine,reduction in the myotonia
same,"myotonia, difference between WT and Cav1.1^Δe29, first tetanus",myotonic Cav1.1^Δe29 EDL; 10 mM amlodipine,significant difference
same,"myotonia, difference between WT and Cav1.1^Δe29, following tetani","myotonic Cav1.1^Δe29 EDL; 10 mM amlodipine, 100 mM 9-AC",no difference
same,percent body weight change compared to WT,[3]; 5 mg/kg/day amlodipine vs WT,not significantly different
same,percent body weight change from weaning at 10 weeks,[3]; [9],significant improvement
same,muscle function and muscle force generation in diaphragm,"[4]; 20-weeks-of-age, amlodipine treatment",not a significant impact
same,"diaphragm force reduction at 150 Hz and in frequency dependence protocol, compared to ClC-1^−/− alone mice","[4]; 20-wk, amlodipine treated",comparable
same,diaphragm strip force generation compared to WT diaphragm,"[4]; 20-wk, amlodipine treated vs WT",force generation reduction
same,myotonia (integration normalized to specific force) without 9AC,[5],has no affect
same,myotonia,myotonic WT EDL; 10 mM amlodipine,reduced myotonia
same,"time of righting reflex, week-to-week, compared to ClC-1^−/− alone mice",[6]; 5 mg/kg/day amlodipine,no significant difference in righting
same,average time of righting reflex compared to WT mice,[6]; 5 mg/kg/day amlodipine vs WT,not a significant difference in time of righting
same,average time of righting reflex at 10- and 20-week of age,[6]; [9],significantly improve time of righting
same,"time of righting reflex, weekly",[6]; [9],significantly improves time of righting
same,minute ventilation,"[7]; 10-week, amlodipine treated vs untreated",not improved
same,frequency of respiration,"[7]; 10-weeks, 5 mg/kg/day amlodipine",reduction in the frequency
same,frequency of respiration compared to WT,[7]; [10],not significantly different
same,minute ventilation compared to WT,[7]; [10],significant reduction
same,respiratory function overall,[7]; amlodipine treatment,moderately impacted
"COc1ccc(CCN(C)CCCC(C#N)(c2ccc(OC)c(OC)c2)C(C)C)cc1OC (racemic) [verapamil, (RS)-2-(3,4-Dimethoxyphenyl)-5-{[2-(3,4-dimethoxyphenyl)ethyl]-(methyl)amino}-2-prop-2-ylpentanenitrile]",transient weakness,WT+9-AC EDL muscle; 5 mM verapamil,improve transient weakness
same,transient weakness,WT+9-AC EDL muscle; 20 mM verapamil,improve transient weakness
same,peak contraction force,[8],does not reduce peak contraction force
same,transient weakness,"[2]; 5 mM verapamil, in bath",improve transient weakness
same,transient weakness,"[2]; 20 um verapamil, in bath",significant and robust
"COC(=O)C1=C(C)NC(C)=C(C(=O)OC)C1c1ccccc1[N+](=O)[O-] [nifedipine, 3,5-dimethyl 2,6-dimethyl-4-(2-nitrophenyl)-1,4-dihydropyridine-3,5-dicarboxylate]",initial drop in force generation between the first and second tetani,[2]; 10 mM nifedipine,improved
same,transient weakness,[2]; 10 mM nifedipine in the bath,significant improvement in transient weakness
same,myotonia,myotonic Cav1.1^Δe29 EDL; 75 nM nifedipine,reduction in the myotonia
same,myotonia,myotonic WT EDL; 75 nM nifedipine,reduced myotonia
